Data from patent US20140112895A1, “GLP-1 PROMOTER MEDIATED INSULIN EXPRESSION FOR THE TREATMENT OF DIABETES” (priority 2010, published 2014).

Test system: STC-1 cells
Test: MTT assay of antibiotic cytotoxicity on STC-1 cells
Type: cell-based, mouse
Conditions: STC-1 cells without antibiotic resistant gene; antibiotic range 0 to 1 mg/ml; optical density read at 560 nm
From the text: For assessment of antibiotic cytotoxicity, a common methodology is the MTT assay which has been widely used as a colorimetric approach based on the activity of living cells. MTT assay is a standard assay (an assay which measures changes in color) for measuring cellular proliferation. Yellow MTT (3-(4,5-Dimethylthiazol-2-yl)-2,5-diphenyltetrazolium bromide, a tetrazole) is reduced to purple formazan in the mitochondria of living cells. The absorbance of this colored solution can be quantified by measuring at a certain wavelength (usually between 500 and 600 nm) by a spectrophotometer.
Therefore, the MTT assay was done for both antibiotics to determine the appropriate concentration of the antibiotic that kills the entire STC-1 cells lacking the antibiotic resistant gene. In this case, STC-1 cells (without any antibiotic resistant gene) were treated with different concentration of zeocin and geneticin antibiotic. The concentration of antibiotics in the culture media was in the range of 0 to 1 mg/ml in 12 wells (Table 7).
Optical density of solutions was read at 560 nm on an ELISA plate reader. The absorbance of colored solution is directly proportional to the number of cells. Based on MTT assay result, the concentration of geneticin and zeocin antibiotic that are able to kill all the STC-1 cells (without antibiotic resistant gene) were 400 ug/ml and 500 ug/ml.

Row | SMILES | concentration of antibiotic able to kill all the STC-1 cells [µg/mL]
1 | CN[C@@H]1[C@@H](O)[C@@H](O[C@@H]2[C@@H](O)[C@H](O[C@H]3O[C@H]([C@@H](C)O)[C@@H](O)[C@H](O)[C@H]3N)[C@@H](N)C[C@H]2N)OC[C@]1(C)O [geneticin] | 400
2 | Cc1c(N)nc([C@H](CC(N)=O)NC[C@H](N)C(N)=O)nc1C(=O)N[C@H](C(=O)N[C@H](C)[C@@H](O)[C@H](C)C(=O)N[C@H](C(=O)NCCC1=N[C@@H](c2nc(C(=O)NCCCCN=C(N)N)cs2)CS1)[C@@H](C)O)[C@@H](O[C@@H]1O[C@@H](CO)[C@@H](O)[C@H](O)[C@@H]1O[C@H]1O[C@H](CO)[C@@H](O)[C@H](OC(N)=O)[C@@H]1O)c1cnc[nH]1 [zeocin] | 500
